Assay results taken from ChEMBL document CHEMBL1126580, “Enantiospecific syntheses of alpha-(fluoromethyl)tryptophan analogues: interactions with tryptophan hydroxylase and aromatic L-amino acid decarboxylase” (J Med Chem, 1993).

Target: T1, Aromatic-L-amino-acid decarboxylase (Mus musculus) (UniProt O88533)
T1 sequence (whole entry): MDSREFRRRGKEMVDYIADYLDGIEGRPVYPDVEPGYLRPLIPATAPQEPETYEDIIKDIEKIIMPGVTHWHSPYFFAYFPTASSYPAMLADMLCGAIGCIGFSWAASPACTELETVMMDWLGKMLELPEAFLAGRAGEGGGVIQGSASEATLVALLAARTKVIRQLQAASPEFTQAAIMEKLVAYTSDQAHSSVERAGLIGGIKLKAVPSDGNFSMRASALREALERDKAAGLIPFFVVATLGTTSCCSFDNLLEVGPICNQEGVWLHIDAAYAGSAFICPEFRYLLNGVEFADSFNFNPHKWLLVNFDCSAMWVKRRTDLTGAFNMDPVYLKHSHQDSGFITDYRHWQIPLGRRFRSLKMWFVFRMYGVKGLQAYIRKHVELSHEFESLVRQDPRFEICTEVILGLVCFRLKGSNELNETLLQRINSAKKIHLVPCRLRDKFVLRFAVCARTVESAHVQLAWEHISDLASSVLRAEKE
Test: First-order inactivation rate constant (k2) was evaluated as an inhibitor of murine liver aromatic L-amino acid decarboxylase (AADC)

N[C@@](CF)(Cc1c[nH]c2ccc(O)cc12)C(=O)O
k2: 2.26 min⁻¹
